Reference: ChEMBL document CHEMBL1149325 (J Med Chem, 2004)

Tests used:
[1] = species: Mus musculus
Description: Percentage of compound bound to serum protein was determined

[2] = biological target: Cyclin-dependent kinase 2/cyclin E (Homo sapiens, UniProt P24941)
[3] = system: Mus musculus; assay: Tmax in mice at 18 uM/kg i.p. administration; assay type: functional, organism-based
[4] = system: Mus musculus; assay: Mean-residence time was determined for compound after intraperitoneal administration in mice at 18 uM/kg; assay type: functional, organism-based
[5] = system: Mus musculus; assay: Half life after intraperitoneal administration in mice at 18 uM/kg; assay type: functional, organism-based
[6] = system: Mus musculus; assay: Area under curve was determined for compound after intraperitoneal administration in mice at 18 uM/kg; assay type: functional, organism-based
[7] = Cmax in mice at 18 umol/kg i.p. administration; assay type: ADME, organism-based; set-up: dose 18 umol/kg, route intraperitoneal; conditions: mouse, in vivo, ip
[8] = system: Mus musculus; assay: Microsomal stability was determined in mouse liver microsomes after intraperitoneal administration in mice at 18 uM/kg; assay type: functional
[9] = species: Mus musculus; assay: Log cell kill for A2780 tumor in mice; assay type: functional
[10] = species: Mus musculus; remark: listed apart in the source
Description: Maximum tolerated dose in A2780 tumor in mice after intraperitoneal administration daily for 8 days

[11] = system: P388
Description: Increase in life span of the treated mice to those of control was determined

[12] = system: P388; remark: listed apart in the source
Description: Maximum tolerated dose was determined against P338 tumor in mice after intraperitoneal administration daily for 7 days

[13] = system: Mus musculus; assay: Tmax in mice at 25 uM/kg i.p. administration; assay type: functional, organism-based
[14] = system: Mus musculus; assay: Mean-residence time was determined for compound after intraperitoneal administration in mice at 25 uM/kg; assay type: functional, organism-based
[15] = system: Mus musculus; assay: Half life after intraperitoneal administration in mice at 25 uM/kg; assay type: functional, organism-based
[16] = Cmax in mice at 25 umol/kg i.p. administration; assay type: ADME, organism-based; set-up: dose 25 umol/kg, route intraperitoneal; conditions: mouse, in vivo, ip
[17] = system: Mus musculus; assay: Area under curve was determined for compound after intraperitoneal administration in mice at 25 uM/kg; assay type: functional, organism-based
[18] = system: Mus musculus; assay: Mean-residence time was determined for compound after intraperitoneal administration in mice at 26 uM/kg; assay type: functional, organism-based
[19] = system: Mus musculus; assay: Half life after intraperitoneal administration in mice at 26 uM/kg; assay type: functional, organism-based
[20] = Cmax in mice at 26 umol/kg i.p. administration; assay type: ADME, organism-based; set-up: dose 26 umol/kg, route intraperitoneal; conditions: mouse, in vivo, ip
[21] = system: Mus musculus; assay: Area under curve was determined for compound after intraperitoneal administration in mice at 26 uM/kg; assay type: functional, organism-based
[22] = Cmax in mice at 24 umol/kg i.p. administration; assay type: ADME, organism-based; set-up: dose 24 umol/kg, route intraperitoneal; conditions: mouse, in vivo, ip
[23] = system: Mus musculus; assay: Tmax in mice at 23 uM/kg i.v. administration; assay type: functional, organism-based
[24] = system: Mus musculus; assay: Mean-residence time was determined for compound intravenous administration in mice at 23 uM/kg; assay type: functional, organism-based
[25] = system: Mus musculus; assay: Half life after intravenous administration in mice at 23 uM/kg; assay type: functional, organism-based
[26] = system: Mus musculus; assay: Microsomal stability was determined in mouse liver microsomes after intravenous administration in mice at 23 uM/kg; assay type: functional
[27] = species: Mus musculus; assay: Log cell kill for A2780 tumor in mice; […]; assay type: functional
[28] = in vivo; conditions: mouse, iv, 23 umol/kg
Description: Cmax in mice at 23 umol/kg i.v. administration

`CC(C)(C)OC(=O)N1CCC(C(=O)Nc2ncc(SCc3ncc(C(C)(C)C)o3)s2)CC1` showed a Binding [1] of 99%.
With `CC(=O)Nc1ncc(SCc2ncc(C(C)(C)C)o2)s1` the IC50 [2] was 5 µM and the Binding [1] was 83%.
Molecule `CC(C)(C)c1cnc(CSc2cnc(NC(=O)Cc3ccc(CNC(CO)CO)cc3)s2)o1` has a Tmax [3] of 1 h, an MRT [4] of 2.9 h and a T1/2 [5] of 1.8 h. The AUC [6] was 1320 ng·h/mL, the Cmax [7] was 800 nM and the Activity [8] was 0.22 nM min-1 (mg of protein)-1. The LCK [9] was 3.3, the MTD [10] was 26 mg/kg and the Binding [1] was 79%. For the same molecule, the Survival [11] was 140% and the MTD [12] was 32 mg/kg.
In the case of `CC(C)(C)c1cnc(CSc2cnc(NC(=O)Cc3ccccc3)s2)o1`, the IC50 [2] is reported as 3 µM.
`CN1CCC(C(=O)Nc2ncc(SCc3ncc(C(C)(C)C)o3)s2)CC1` gave a Tmax [13] of 30 min, an MRT [14] of 1.1 h and a T1/2 [15] of 0.7 h. The Cmax [16] was 1100 nM, the AUC [17] was 473 ng·h/mL and the Binding [1] was 75%.
`CC(C)(C)c1cnc(CSc2cnc(NC(=O)C3CCCNC3)s2)o1` (configuration not stated) showed an MRT [18] of 3.5 h, a T1/2 [19] of 2.2 h and a Cmax [20] of 3.5 µM. The AUC [21] was 4600 ng·h/mL, the LCK [9] was 1.6 and the MTD [10] was 22 mg/kg. For the same molecule, the Binding [1] was 82%, the Survival [11] was 152% and the MTD [12] was 20 mg/kg.
`CC(C)(C)c1cnc(CSc2cnc(NC(=O)C3CCN(S(C)(=O)=O)CC3)s2)o1` gave a Binding [1] of 84%.
Molecule `CC(C)(C)c1cnc(CSc2cnc(NC(=O)C3CCN(CCO)CC3)s2)o1` has a Tmax [13] of 30 min, an MRT [14] of 2.4 h and a T1/2 [15] of 1.9 h. For the same molecule, the Cmax [22] was 1100 nM, the AUC [17] was 764 ng·h/mL and the Binding [1] was 75%. For the same molecule, the Survival [11] was 140% and the MTD [12] was 22.5 mg/kg.
In the case of `CC(C)(C)c1cnc(CSc2cnc(NC(=O)[C@H]3CC[C@H](N)CC3)s2)o1`, the Binding [1] is reported as 86%.
In the case of `CC(C)(C)c1cnc(CSc2cnc(NC(=O)C3CCCCC3)s2)o1`, the IC50 [2] is reported as 300 µM.
In the case of `CC(C)(C)c1cnc(CSc2cnc(NC(=O)[C@H]3CC[C@@H](N)CC3)s2)o1`, the Tmax [23] is reported as 6 min, the MRT [24] is reported as 2.2 h and the T1/2 [25] is reported as 2.2 h. The AUC [6] was 4660 ng·h/mL, the Activity [26] was 0.07 nM min-1 (mg of protein)-1 and the LCK [27] was 1.7. For the same molecule, the MTD [10] was 8 mg/kg, the Binding [1] was 68% and the Survival [11] was 179%. The MTD [12] was 8 mg/kg and the Cmax [28] was 13.6 µM.
